In patent US6355799B1, “Substituted benzene compounds, process for their preparation, and herbicidal and defoliant compositions containing them” (ISK Americas Incorporated, priority 1997, dated 2002):

Legend:
Type in all cases: in vivo
[1] = test system: field corn (Zea mays L., var. Dekalb 535, CORN); assay: Post-emerge test, crop safety; settings: phytotoxicity rating 0-100 (0 no damage, 100 complete death), 14 days after application
How it was run: (§1)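 Plants grown in 10 cm pots of sandy loam mix received acetone-dissolved compounds through a moving flat-fan nozzle. Doses ranged from 15 to 1000 g ai/ha. Pre-emerge pots were seeded one day earlier, post-emerge pots 8–21 days earlier. Fourteen days on, each pot was graded 0–100 for damage.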

[2] = test system: upland rice (Oryza sp., var. Tebonnet, RICE); assay: Post-emerge test, crop safety; settings: phytotoxicity rating 0-100 (0 no damage, 100 complete death), 14 days after application
How it was run: as §1

[3] = test system: velvetleaf (Abutilon theophrasti, ABUTH); assay: Pre-emerge test, greenhouse herbicide activity screening; settings: pre-emerge, rated 14 days after application, 0 = no damage, 100 = complete death
How it was run: (§2)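 Rating: 0–100 visual injury, 14 DAA. Application: acetone, 187 l/ha, 15–1000 g ai/ha, flat-fan track sprayer with nozzle 40–45 cm above soil or canopy. Post-emerge runs used 0.25% v/v surfactant on 2–3 leaf plants.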

[4] = test system: lambsquarters (Chenopodium album, CHEAL); assay: as above; settings: pre-emerge, rated 14 days after application, 0 = no damage, 100 = complete death
How it was run: as §2

[5] = test system: sicklepod (Cassia obtusifolia, CASOB); assay: as above; settings: pre-emerge, rated 14 days after application, 0 = no damage, 100 = complete death
How it was run: as §2

[6] = test system: large crabgrass (Digitaria sanguinalis, DIGSA); assay: as above; settings: pre-emerge, rated 14 days after application, 0 = no damage, 100 = complete death
How it was run: as §2

[7] = test system: ivyleaf morningglory (Ipomoea hederacea, IPOHE); assay: as above; settings: pre-emerge, rated 14 days after application, 0 = no damage, 100 = complete death
How it was run: as §2

[8] = test system: green foxtail (Setaria viridis, SETVI); assay: as above; settings: pre-emerge, rated 14 days after application, 0 = no damage, 100 = complete death
How it was run: as §2

[9] = test system: johnsongrass (Sorghum halepense, SORHA); assay: as above; settings: pre-emerge, rated 14 days after application, 0 = no damage, 100 = complete death
How it was run: as §2

[10] = test system: barnyardgrass (Echinochloa crus-galli, ECHCG); assay: as above; settings: pre-emerge, rated 14 days after application, 0 = no damage, 100 = complete death
How it was run: as §2

[11] = test system: field corn (Zea mays L., var. Dekalb 535, CORN); assay: Pre-emerge test, crop safety; settings: pre-emerge, rated 14 days after application, 0 = no damage, 100 = complete death
How it was run: (§3)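 Applied at 15–1000 g ai/ha from acetone in 187 l/ha spray volume. Post-emergence applications included 0.25% v/v non-ionic surfactant and reached plants sown 8–21 days before. Pre-emergence applications were incorporated by surface watering. Efficacy or crop damage was rated on a 0–100 scale after 14 days.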

[12] = test system: upland rice (Oryza sp., var. Tebonnet, RICE); assay: Pre-emerge test, crop safety; settings: pre-emerge, rated 14 days after application, 0 = no damage, 100 = complete death
How it was run: as §3

[13] = test system: redroot pigweed (Amaranthus retroflexus, AMARE); assay: Pre-emerge test, greenhouse herbicide activity screening; settings: pre-emerge, rated 14 days after application, 0 = no damage, 100 = complete death
How it was run: (§4)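 Compounds in acetone were track-sprayed at 15-1000 g ai/ha (187 l/ha) on sandy loam pots: pre-emerge one day after seeding, post-emerge at 2-3 leaf stage with 0.25% v/v non-ionic surfactant. Phytotoxicity was rated 14 days later on a 0 (no damage) to 100 (complete death) scale.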

[14] = test system: velvetleaf (Abutilon theophrasti, ABUTH); assay: Post-emerge test, greenhouse herbicide activity screening; settings: phytotoxicity rating 0-100 (0 no damage, 100 complete death), 14 days after application
How it was run: as §4

[15] = test system: redroot pigweed (Amaranthus retroflexus, AMARE); assay: as above; settings: phytotoxicity rating 0-100 (0 no damage, 100 complete death), 14 days after application
How it was run: as §4

[16] = test system: lambsquarters (Chenopodium album, CHEAL); assay: as above; settings: phytotoxicity rating 0-100 (0 no damage, 100 complete death), 14 days after application
How it was run: as §4

[17] = test system: sicklepod (Cassia obtusifolia, CASOB); assay: as above; settings: phytotoxicity rating 0-100 (0 no damage, 100 complete death), 14 days after application
How it was run: as §4

[18] = test system: large crabgrass (Digitaria sanguinalis, DIGSA); assay: as above; settings: phytotoxicity rating 0-100 (0 no damage, 100 complete death), 14 days after application
How it was run: as §4

[19] = test system: ivyleaf morningglory (Ipomoea hederacea, IPOHE); assay: as above; settings: phytotoxicity rating 0-100 (0 no damage, 100 complete death), 14 days after application
How it was run: as §4

[20] = test system: green foxtail (Setaria viridis, SETVI); assay: as above; settings: phytotoxicity rating 0-100 (0 no damage, 100 complete death), 14 days after application
How it was run: as §4

[21] = test system: johnsongrass (Sorghum halepense, SORHA); assay: as above; settings: phytotoxicity rating 0-100 (0 no damage, 100 complete death), 14 days after application
How it was run: as §4

[22] = test system: barnyardgrass (Echinochloa crus-galli, ECHCG); assay: as above; settings: phytotoxicity rating 0-100 (0 no damage, 100 complete death), 14 days after application
How it was run: as §4

`Cn1c(C(F)(F)F)cc(=O)n(-c2c(F)cc(Cl)c(OCc3ccccc3)c2N)c1=O` [Compound 1-22] was tested, and the “Post-emerge Herbicidal Activity CORN (crop damage)” value ([1]; 63 g ai/ha) was 5, the “Post-emerge Herbicidal Activity CORN (crop damage)” value ([1]; 250 g ai/ha) was 15 and the “Post-emerge Herbicidal Activity RICE (crop damage)” value ([2]; 63 g ai/ha) was 10. The “Post-emerge Herbicidal Activity RICE (crop damage)” value ([2]; 250 g ai/ha) was 40, the “Pre-emerge Herbicidal Activity ABUTH (phytotoxicity rating, scale 0-100)” value ([3]; 63 g ai/ha) was 100 and the “Pre-emerge Herbicidal Activity ABUTH (phytotoxicity rating, scale 0-100)” value ([3]; 250 g ai/ha) was 100. The “Pre-emerge Herbicidal Activity CHEAL (phytotoxicity rating, scale 0-100)” value ([4]; 63 g ai/ha) was 95, the “Pre-emerge Herbicidal Activity CHEAL (phytotoxicity rating, scale 0-100)” value ([4]; 250 g ai/ha) was 100 and the “Pre-emerge Herbicidal Activity CASOB (phytotoxicity rating, scale 0-100)” value ([5]; 63 g ai/ha) was 0. The “Pre-emerge Herbicidal Activity CASOB (phytotoxicity rating, scale 0-100)” value ([5]; 250 g ai/ha) was 0, the “Pre-emerge Herbicidal Activity DIGSA (phytotoxicity rating, scale 0-100)” value ([6]; 63 g ai/ha) was 0 and the “Pre-emerge Herbicidal Activity DIGSA (phytotoxicity rating, scale 0-100)” value ([6]; 250 g ai/ha) was 60. The “Pre-emerge Herbicidal Activity IPOHE (phytotoxicity rating, scale 0-100)” value ([7]; 63 g ai/ha) was 0, the “Pre-emerge Herbicidal Activity IPOHE (phytotoxicity rating, scale 0-100)” value ([7]; 250 g ai/ha) was 20 and the “Pre-emerge Herbicidal Activity SETVI (phytotoxicity rating, scale 0-100)” value ([8]; 63 g ai/ha) was 90. The “Pre-emerge Herbicidal Activity SETVI (phytotoxicity rating, scale 0-100)” value ([8]; 250 g ai/ha) was 100, the “Pre-emerge Herbicidal Activity SORHA (phytotoxicity rating, scale 0-100)” value ([9]; 63 g ai/ha) was 0 and the “Pre-emerge Herbicidal Activity SORHA (phytotoxicity rating, scale 0-100)” value ([9]; 250 g ai/ha) was 60. For the same molecule, the “Pre-emerge Herbicidal Activity ECHCG (phytotoxicity rating, scale 0-100)” value ([10]; 63 g ai/ha) was 0, the “Pre-emerge Herbicidal Activity ECHCG (phytotoxicity rating, scale 0-100)” value ([10]; 250 g ai/ha) was 60 and the “Pre-emerge crop damage CORN (phytotoxicity rating, scale 0-100)” value ([11]; 63 g ai/ha) was 0. The “Pre-emerge crop damage CORN (phytotoxicity rating, scale 0-100)” value ([11]; 250 g ai/ha) was 10, the “Pre-emerge crop damage RICE (phytotoxicity rating, scale 0-100)” value ([12]; 63 g ai/ha) was 0 and the “Pre-emerge crop damage RICE (phytotoxicity rating, scale 0-100)” value ([12]; 250 g ai/ha) was 50. The “Pre-emerge Herbicidal Activity AMARE (phytotoxicity rating, scale 0-100)” value ([13]; 63 g ai/ha) was 95, the “Pre-emerge Herbicidal Activity AMARE (phytotoxicity rating, scale 0-100)” value ([13]; 250 g ai/ha) was 100 and the “Post-emerge Herbicidal Activity ABUTH” value ([14]; 63 g ai/ha) was 100. For the same molecule, the “Post-emerge Herbicidal Activity ABUTH” value ([14]; 250 g ai/ha) was 100, the “Post-emerge Herbicidal Activity AMARE” value ([15]; 63 g ai/ha) was 60 and the “Post-emerge Herbicidal Activity AMARE” value ([15]; 250 g ai/ha) was 80. For the same molecule, the “Post-emerge Herbicidal Activity CHEAL” value ([16]; 63 g ai/ha) was 40, the “Post-emerge Herbicidal Activity CHEAL” value ([16]; 250 g ai/ha) was 80 and the “Post-emerge Herbicidal Activity CASOB” value ([17]; 63 g ai/ha) was 0. The “Post-emerge Herbicidal Activity CASOB” value ([17]; 250 g ai/ha) was 0, the “Post-emerge Herbicidal Activity DIGSA” value ([18]; 63 g ai/ha) was 0 and the “Post-emerge Herbicidal Activity DIGSA” value ([18]; 250 g ai/ha) was 0. For the same molecule, the “Post-emerge Herbicidal Activity IPOHE” value ([19]; 63 g ai/ha) was 40, the “Post-emerge Herbicidal Activity IPOHE” value ([19]; 250 g ai/ha) was 90 and the “Post-emerge Herbicidal Activity SETVI” value ([20]; 63 g ai/ha) was 0. For the same molecule, the “Post-emerge Herbicidal Activity SETVI” value ([20]; 250 g ai/ha) was 80, the “Post-emerge Herbicidal Activity SORHA” value ([21]; 63 g ai/ha) was 0 and the “Post-emerge Herbicidal Activity SORHA” value ([21]; 250 g ai/ha) was 10. The “Post-emerge Herbicidal Activity ECHCG” value ([22]; 63 g ai/ha) was 0 and the “Post-emerge Herbicidal Activity ECHCG” value ([22]; 250 g ai/ha) was 0.
